In one assay the target is T1, human CH24H (Homo sapiens, UniProt Q9Y6A2).
T1 construct: Using Full-Length Mammalian Gene Collection No. 4819975 (Invitrogen) as a template; made in house; host or cells: FreeStyle 293-F cells (transient transfection with pcDNA3.1(+)/hCH24H); crude lysate supernatant
T1 sequence (Q9Y6A2 whole entry): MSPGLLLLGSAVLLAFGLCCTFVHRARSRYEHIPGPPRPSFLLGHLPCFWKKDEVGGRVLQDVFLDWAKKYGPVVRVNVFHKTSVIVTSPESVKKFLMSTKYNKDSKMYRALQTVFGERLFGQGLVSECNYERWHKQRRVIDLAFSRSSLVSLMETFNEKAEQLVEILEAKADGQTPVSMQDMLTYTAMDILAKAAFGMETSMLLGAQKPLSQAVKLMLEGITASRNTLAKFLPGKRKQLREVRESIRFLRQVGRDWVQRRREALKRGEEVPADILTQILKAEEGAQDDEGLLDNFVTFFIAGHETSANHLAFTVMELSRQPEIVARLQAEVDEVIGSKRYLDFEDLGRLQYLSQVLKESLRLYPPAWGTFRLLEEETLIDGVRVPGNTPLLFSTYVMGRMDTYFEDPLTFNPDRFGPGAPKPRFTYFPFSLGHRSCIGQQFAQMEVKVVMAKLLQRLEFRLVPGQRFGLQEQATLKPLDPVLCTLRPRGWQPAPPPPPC
Put plainly: Measurement of CH24H inhibitory activity (24-HC produced from [14C] cholesterol by human CH24H lysate). In kind it is biochemical. The following applies: 1 μM test compound, [14C] cholesterol 15 μM, 37° C., 5 hr, read-out: Inhibitory rate (%) at 1 μM. How it is done: The expression of human CH24H was performed using FreeStyle 293 Expression System (Invitrogen). According to the manual attached to FreeStyle 293 Expression System and using the plasmid DNA (pcDNA3.1(+)/hCH24H) for human CH24H expression constructed in Experimental Example 1, a transient expression using FreeStyle 293-F cell was performed. After transfection, the cells were cultured with shaking at 37° C., 8% CO2, 125 rpm for 2 days. The cells were collected by centrifugation, and suspended in a buffer for suspension (100 mM potassium phosphate (pH 7.4), 0.1 mM EDTA, 1 mM DTT, 20% Glycerol). The suspended product was disrupted by a polytron homogenizer (manufactured by Kinematica), and centrifuged at 9000×g for 10 min, and the supernatant was collected. The collected supernatant was cryopreserved (−80° C.) as a human CH24H lysate standard product.
For the measurement of CH24H inhibitory activity, using the human CH24H lysate prepared in Experimental Example 2, the amount of 24-HC produced from cholesterol by catalysis of CH24H was measured in the presence of a test compound, and the amount was compared with that in the absence of the test compound. That is, a test compound solution at various concentrations were mixed with a reaction buffer (50 mM potassium phosphate containing 0.1% BSA and Complete, EDTA-free protease inhibitor cocktail, pH 7.4) and human CH24H lysate. Then, [^14C] cholesterol (53 mCi/mmol specific activity, 15 μM) was added, and CH24H reaction was performed at 37° C. for 5 hr. After completion of the reaction, a quenching solution consisting of chloroform/methanol/distillation water (2:2:1 v/v) was added, and the resulting 24-HC was extracted by shaking. The extract was applied to silica gel thin layer chromatography (ethyl acetate:toluene=4:6), and the obtained ^14C-24HC fraction was measured with BAS2500 (Fujifilm Corporation).
The inhibitory rate (%) was calculated from the ratio of radioactivity in the presence of a test compound relative to the radioactivity in the absence of the test compound.
For `Cc1ccc(-c2ccncc2)c(C(=O)N2CCC(O)(Cc3ccccc3)CC2)c1` [Example 1, (4-benzyl-4-hydroxypiperidin-1-yl)(5-methyl-2-(pyridin-4-yl)phenyl)methanone], the inhibition at 1 µM was determined as 92%.
Take `Cc1noc(-c2ccncc2)c1C(=O)N1CCC(O)(Cc2ccccc2)CC1` [Example 2, (4-benzyl-4-hydroxypiperidin-1-yl)(3-methyl-5-(pyridin-4-yl)-1,2-oxazol-4-yl)methanone]: the inhibition at 1 µM stood at 90%.
Same read-out and setting: the figure for `Cc1ccc(-c2ccncc2)c(C(=O)N2CCC(O)(C(C)C)CC2)c1` [Example 5, (4-hydroxy-4-isopropylpiperidin-1-yl)(5-methyl-2-(pyridin-4-yl)phenyl)methanone] is 70%; for `O=C(c1c(-c2ccncc2)ccc2c1OCO2)N1CCC(O)(Cc2ccccc2)CC1` [Example 9, (4-benzyl-4-hydroxypiperidin-1-yl)(5-(pyridin-4-yl)-1,3-benzodioxol-4-yl)methanone] it is 87%; for `O=C(c1ccccc1-c1ccncn1)N1CCC(O)(Cc2ccccc2)CC1` [Example 14, (4-benzyl-4-hydroxypiperidin-1-yl)(2-(pyrimidin-4-yl)phenyl)methanone] it is 92%.
The same measure, in the same setting: the figure for `O=C(c1ncsc1-c1ccncc1)N1CCC(O)(Cc2ccccc2)CC1` [Example 25, (4-benzyl-4-hydroxypiperidin-1-yl)(5-(pyridin-4-yl)-1,3-thiazol-4 yl)methanone] is 94%; for `O=C(c1scnc1-c1ccncc1)N1CCC(O)(Cc2ccccc2)CC1` [Example 26, (4-benzyl-4-hydroxypiperidin-1-yl)(4-(pyridin-4-yl)-1,3-thiazol-5-yl)methanone] it is 92%; for `O=C(c1ccc(F)cc1-c1ccncc1)N1CCC(O)(Cc2ccccn2)CC1` [Example 30, (4-fluoro-2-(pyridin-4-yl)phenyl)(4-hydroxy-4-(pyridin-2-ylmethyl)piperidin-1-yl)methanone] it is 91%.
Regarding `Cn1ncc(-c2ccncc2)c1C(=O)N1CCC(O)(Cc2ccccc2)CC1` [Example 32, (4-benzyl-4-hydroxypiperidin-1-yl)(1-methyl-4-(pyridin-4-yl)-1H-pyrazol-5-yl)methanone], the inhibition at 1 µM was 92%.
In the case of `O=C(c1ccccc1-c1ccncn1)N1CCC(O)(Cc2ccccn2)CC1` [Example 34, (4-hydroxy-4-(pyridin-2-ylmethyl)piperidin-1-yl)(2-(pyrimidin-4-yl)phenyl)methanone], the inhibition at 1 µM stood at 90%.
With `Cc1ccc(-c2ccncc2)c(C(=O)N2CCC(O)(CC3=NCCS3)CC2)c1` [Example 39, (4-(4,5-dihydro-1,3-thiazol-2-ylmethyl)-4-hydroxypiperidin-1-yl)(5-methyl-2-(pyridin-4-yl)phenyl)methanone], the inhibition at 1 µM is 90%.
On the same count and under the same terms, in the case of `O=C(c1c(C(F)(F)F)n[nH]c1-c1ccncc1)N1CCC(O)(Cc2ccccc2)CC1` [Example 41, (4-benzyl-4-hydroxypiperidin-1-yl)(5-(pyridin-4-yl)-3-(trifluoromethyl)-1H-pyrazol-4-yl)methanone] it was 93%.
With `O=C(c1cccnc1-c1ccncc1)N1CCC(O)(Cc2ccccc2)CC1` [Example 44, (4-benzyl-4-hydroxypiperidin-1-yl)(2,4′-bipyridin-3-yl)methanone], the inhibition at 1 µM worked out at 95%.
With `O=C(c1cccnc1-c1ccncn1)N1CCC(O)(Cc2ccccc2)CC1` [Example 54, (4-benzyl-4-hydroxypiperidin-1-yl)(2-(pyrimidin-4-yl)pyridin-3-yl)methanone], the inhibition at 1 µM was found to be 90%.
Regarding `O=C(c1cc(F)c(F)cc1-c1ccncn1)N1CCC(O)(Cc2ccccn2)CC1` [Example 56, (4,5-difluoro-2-(pyrimidin-4-yl)phenyl)(4-hydroxy-4-(pyridin-2-ylmethyl)piperidin-1-yl)methanone], the inhibition at 1 µM is 90%.
Same read-out and setting: in the case of `O=C(c1cc(F)ccc1-c1ccncn1)N1CCC(O)(Cc2ccccn2)CC1` [Example 58, (5-fluoro-2-(pyrimidin-4-yl)phenyl)(4-hydroxy-4-(pyridin-2-ylmethyl)piperidin-1-yl)methanone] it was 84%.
In the case of `COC1(Cc2ccccc2)CCN(C(=O)c2cc(C)ccc2-c2ccncc2)CC1` [Example 59, (4-benzyl-4-methoxypiperidin-1-yl)(5-methyl-2-(pyridin-4-yl)phenyl)methanone], the inhibition at 1 µM amounted to 83%.
Still for that read-out and setting: in the case of `Cc1nc(-c2ccncn2)c(C(=O)N2CCC(O)(Cc3ccccc3)CC2)s1` [Example 60, (4-benzyl-4-hydroxypiperidin-1-yl)(2-methyl-4-(pyrimidin-4-yl)-1,3-thiazol-5-yl)methanone] it was 82%.
As for `O=C(c1ccc(F)cc1-c1ccncn1)N1CCC(O)(Cc2ccccn2)CC1` [Example 63, (4-fluoro-2-(pyrimidin-4-yl)phenyl)(4-hydroxy-4-(pyridin-2-ylmethyl)piperidin-1-yl)methanone], the inhibition at 1 µM stood at 82%.
Turning to `O=C(c1cccnc1-c1ccncc1)N1CCC(O)(Cc2ccc(F)cc2)CC1` [Example 67, 2,4′-bipyridin-3-yl(4-(4-fluorobenzyl)-4-hydroxypiperidin-1-yl)methanone], the inhibition at 1 µM amounted to 89%.
`N#Cc1ccc(CC2(O)CCN(C(=O)c3cccnc3-c3ccncc3)CC2)cc1` [Example 70, 4-((1-(2,4′-bipyridin-3-ylcarbonyl)-4-hydroxypiperidin-4-yl)methyl)benzonitrile]: the inhibition at 1 µM was determined as 89%.
Same read-out and setting: the figure for `O=C(c1ccccc1-c1cnco1)N1CCC(O)(Cc2ccccc2)CC1` [Example 82, (4-benzyl-4-hydroxypiperidin-1-yl)(2-(1,3-oxazol-5-yl)phenyl)methanone] is 87%.
For the molecule `O=C(c1cccnc1-c1ccncc1)N1CCC(O)(Cc2ccc(F)c(F)c2)CC1` [Example 86, 2,4′-bipyridin-3-yl(4-(3,4-difluorobenzyl)-4-hydroxypiperidin-1-yl)methanone], the inhibition at 1 µM is 89%.
For the molecule `O=C(c1cccnc1-c1ccncc1)N1CCC(O)(Cc2ccc(F)cc2F)CC1` [Example 87, 2,4′-bipyridin-3-yl(4-(2,4-difluorobenzyl)-4-hydroxypiperidin-1-yl)methanone], the inhibition at 1 µM was 89%.
Consider `O=C(c1cccnc1-c1ccncn1)N1CCC(O)(Cc2ccc(F)cc2)CC1` [Example 92, (4-(4-fluorobenzyl)-4-hydroxypiperidin-1-yl)(2-(pyrimidin-4-yl)pyridin-3-yl)methanone], for which the inhibition at 1 µM was 88%.
With `COc1ccc(CC2(O)CCN(C(=O)c3cccnc3-c3ccncc3)CC2)cc1` [Example 97, 2,4′-bipyridin-3-yl(4-hydroxy-4-(4-methoxybenzyl)piperidin-1-yl)methanone], the inhibition at 1 µM turned out to be 87%.
With `O=C(c1ccccc1-c1cnco1)N1CCC(O)(Cc2ccc(F)cc2F)CC1` [Example 102, (4-(2,4-difluorobenzyl)-4-hydroxypiperidin-1-yl)(2-(1,3-oxazol-5-yl)phenyl)methanone], the inhibition at 1 µM was found to be 89%.
Consider `O=C(c1cccnc1-c1ccncn1)N1CCC(O)(Cc2ccc(F)cc2F)CC1` [Example 105, (4-(2,4-difluorobenzyl)-4-hydroxypiperidin-1-yl)(2-(pyrimidin-4-yl)pyridin-3-yl)methanone], for which the inhibition at 1 µM was found to be 95%.

A further assay deals with APP/PS1 double transgenic mouse. Put plainly: Y-maze test using APP/PS1 double transgenic mouse (spontaneous alternation behavior). The following applies: 10 mg/kg orally once a day, Y-maze at 16 hours after the 13th administration. In kind it is in vivo. On the procedure:
Animals used were 3-month-old female APP/PS1 double transgenic mice (10-15 mice/group). A test compound was suspended in a 0.5% aqueous methylcellulose [133-14255 WAKO] solution (1 mg/mL). The body weight of the mice was measured, and the solution was forcibly administered orally and repeatedly once a day for 14 days. At 16 hours after the 13th administration, spontaneous alternation behavior in Y-maze test was evaluated. Using a particular arm of a Y-shaped test apparatus as the starting point, the frequency of moving to a different arm was counted for 5 min. The first two times of entry were excluded from the total number of entry. In addition, the mice that entered less than 10 times in total were excluded. Movement to an arm different from the arm into which the mouse entered last but one was considered an alternation behavior, and the ratio to the total number of moving was calculated as a spontaneous alternation behavior rate. As comparison subjects, a control group (test compound-non treatment group) and a control group in wild-type mice were used.
As to `O=C(c1cccnc1-c1ccncc1)N1CCC(O)(Cc2ccccc2)CC1` [Example 44, (4-benzyl-4-hydroxypiperidin-1-yl)(2,4′-bipyridin-3-yl)methanone], the “Spontaneous alternation behavior rate (%)” value came to 71%.
Regarding `O=C(c1cccnc1-c1ccncn1)N1CCC(O)(Cc2ccc(F)cc2)CC1` [Example 92, (4-(4-fluorobenzyl)-4-hydroxypiperidin-1-yl)(2-(pyrimidin-4-yl)pyridin-3-yl)methanone], the “Spontaneous alternation behavior rate (%)” value was found to be 62%.

The same assay, now with this note: 30 mg/kg orally once a day, Y-maze at 16 hours after the 13th administration.
For `O=C(c1cccnc1-c1ccncc1)N1CCC(O)(Cc2ccccc2)CC1` [Example 44, (4-benzyl-4-hydroxypiperidin-1-yl)(2,4′-bipyridin-3-yl)methanone], the “Spontaneous alternation behavior rate (%)” value stood at 71%.
For the molecule `O=C(c1cccnc1-c1ccncn1)N1CCC(O)(Cc2ccc(F)cc2)CC1` [Example 92, (4-(4-fluorobenzyl)-4-hydroxypiperidin-1-yl)(2-(pyrimidin-4-yl)pyridin-3-yl)methanone], the “Spontaneous alternation behavior rate (%)” value turned out to be 72%.

Source of the values: patent US8648079B2, “Heterocyclic compounds” (Takeda Pharmaceutical Company Limited, priority 2011, dated 2014).
